In ChEMBL document CHEMBL3044716, “Discovery of imidacloprid and further developments from strategic molecular designs” (J Agric Food Chem, 2011):
The source made the active and inactive calls. No cut-off for these calls is given here.

Experiments:
Nephotettix cincticeps [1] = test: Insecticidal activity against Nephotettix cincticeps (green rice leafhopper) assessed as mortality measured after 4 days; format: functional
[2] = Photolysis of the compound assessed as half life at 30 degC by 250 W sun lamp; format: physicochemical
Myzus persicae [3] = test: Insecticidal activity against Myzus persicae (green peach aphid) in cabbage plant assessed as mortality at 100 mg/L insects released after 14 days of compound treatment measured after 72 hr of insect release (reference value: 0%); format: functional
Myzus persicae [4] = test: Insecticidal activity against Myzus persicae (green peach aphid) in cabbage plant assessed as mortality at 100 mg/L insects released after 7 days of compound treatment measured after 72 hr of insect release (reference value: 10 +/- 3%); format: functional
Myzus persicae [5] = test: Insecticidal activity against Myzus persicae (green peach aphid) in cabbage plant assessed as mortality at 100 mg/L insects released after 3 days of compound treatment measured after 72 hr of insect release (reference value: 14 +/- 4%); format: functional
Nephotettix cincticeps [6] = test: Insecticidal activity against Nephotettix cincticeps (green rice leafhopper) in rice plant assessed as mortality at 100 mg/L insects released after 14 days of compound treatment measured after 72 hr of insect release (reference value: 0%); format: functional
Nephotettix cincticeps [7] = test: Insecticidal activity against Nephotettix cincticeps (green rice leafhopper) in rice plant assessed as mortality at 100 mg/L insects released after 14 days of compound treatment measured after 48 hr of insect release; format: functional
Nephotettix cincticeps [8] = test: Insecticidal activity against Nephotettix cincticeps (green rice leafhopper) in rice plant assessed as mortality at 100 mg/L insects released after 3 days of compound treatment measured after 24 hr of insect release; format: functional
Nephotettix cincticeps [9] = test: Insecticidal activity against Nephotettix cincticeps (green rice leafhopper) in rice plant assessed as mortality at 100 mg/L insects released after 3 days of compound treatment measured after 48 hr of insect release; format: functional
Nephotettix cincticeps [10] = test: Insecticidal activity against Nephotettix cincticeps (green rice leafhopper) in rice plant assessed as mortality at 100 mg/L insects released after 3 days of compound treatment measured after 72 hr of insect release (reference value: 0%); format: functional
Nephotettix cincticeps [11] = test: Insecticidal activity against Nephotettix cincticeps (green rice leafhopper) in rice plant assessed as mortality at 100 mg/L insects released after 7 days of compound treatment measured after 24 hr of insect release; format: functional
Nephotettix cincticeps [12] = test: Insecticidal activity against Nephotettix cincticeps (green rice leafhopper) in rice plant assessed as mortality at 100 mg/L insects released after 7 days of compound treatment measured after 48 hr of insect release; format: functional
Nephotettix cincticeps [13] = test: Insecticidal activity against Nephotettix cincticeps (green rice leafhopper) in rice plant assessed as mortality at 100 mg/L insects released after 7 days of compound treatment measured after 72 hr of insect release (reference value: 0%); format: functional
Nephotettix cincticeps [14] = test: Insecticidal activity against Nephotettix cincticeps (green rice leafhopper) in rice plant assessed as mortality at 100 mg/L insects released after 14 days of compound treatment measured after 24 hr of insect release; format: functional
Spodoptera litura = test: Insecticidal activity against Spodoptera litura (tobacco cutworm) assessed as mortality measured as LC90; format: functional

Row | Compound | LC90 (Nephotettix cincticeps [1]) | further results
1 | CN1CCN(Cc2ccc(Cl)nc2)/C1=N/[N+](=O)[O-] | 1.6 ppm | –
2 | CC(=O)Nc1ccc(CN2CCN/C2=C\[N+](=O)[O-])cn1 | 1000 ppm | –
3 | N#C/C=C1\NCCN1Cc1ccc(Cl)nc1 | inactive | –
4 | COc1ccc(CN2CCN/C2=C\[N+](=O)[O-])cc1 | 200 ppm | –
5 | N#CC(C#N)=C1NCCN1Cc1ccc(Cl)nc1 | 40 ppm | –
6 | CCOC(=O)/N=C1\NCCN1Cc1ccc(Cl)nc1 | 40 ppm | –
7 | CSc1ccc(CN2CCN/C2=C\[N+](=O)[O-])cn1 | 1000 ppm | –
8 | CCOC(=O)/C=C1\NCCN1Cc1ccc(Cl)nc1 | inactive | –
9 | O=[N+]([O-])/C=C1\NCCN1Cc1ccc(F)nc1 | 0.32 ppm | –
10 | CCN1CCN(Cc2ccc(Cl)nc2)/C1=N/[N+](=O)[O-] | 8 ppm | –
11 | CCCCCN1CCN(Cc2ccc(Cl)nc2)/C1=N/[N+](=O)[O-] | 20 ppm | –
12 | O=[N+]([O-])/C=C1\NCCN1Cc1ccc(Br)nc1 | 1.6 ppm | –
13 | CS(=O)(=O)/N=C1\NCCN1Cc1ccc(Cl)nc1 | 40 ppm | –
14 | O=[N+]([O-])/C=C1\NCCN1Cc1cccnc1 | 8 ppm | –
15 | O=[N+]([O-])/C=C1\NCCN1Cc1cnccn1 | 8 ppm | –
16 | O=[N+]([O-])/C=C1\NCCN1Cc1ccncc1 | 8 ppm | –
17 | O=C1NCCN1Cc1ccc(Cl)nc1 | 1000 ppm | –
18 | O=[N+]([O-])/C=C1\NCCN1Cc1ccccc1Cl | inactive | –
19 | N#Cc1ccc(CN2CCN/C2=C\[N+](=O)[O-])cn1 | 200 ppm | –
20 | O=[N+]([O-])/C=C1\NCCCCCN1Cc1ccccc1 | 1000 ppm | –
21 | COc1ccc(CN2CCN/C2=C\[N+](=O)[O-])cn1 | 200 ppm | –
22 | CCCN1CCN(Cc2ccc(Cl)nc2)/C1=N/[N+](=O)[O-] | 0.32 ppm | –
23 | O=[N+]([O-])/N=C1\NCCCN1Cc1ccc(Cl)nc1 | – | half-life [2]: 3.5 h

Row | Compound | LC90 (Nephotettix cincticeps [1]) | further results
24 | O=[N+]([O-])/C=C1\SCCN1Cc1ccc(Cl)nc1 | – | half-life [2]: < 0.5 h
25 | CN1CCN/C1=C\[N+](=O)[O-] | 1000 ppm | –
26 | O=[N+]([O-])/C=C1\NCCN1Cc1cncs1 | 8 ppm | –
27 | O=[N+]([O-])/C=C1\NCCN1C1CCCCC1 | 1000 ppm | –
28 | O=[N+]([O-])/C=C1\NCCN1Cc1ccn[nH]1 | 200 ppm | –
29 | O=[N+]([O-])/C=C1\NCCCN1Cc1ccccc1 | >200 ppm | –
30 | O=[N+]([O-])/N=C1/N(CCCCCCCN2CCN(Cc3ccc(Cl)nc3)/C2=N/[N+](=O)[O-])CCN1Cc1ccc(Cl)nc1 [Heptamethylene 1,7-bis-imadacloprid] | – | mortality (Myzus persicae [3]): 100%; mortality (Myzus persicae [4]): 100%; mortality (Myzus persicae [5]): 100%; mortality (Nephotettix cincticeps [6]): 100%; mortality (Nephotettix cincticeps [7]): 100%; mortality (Nephotettix cincticeps [8]): 13%; mortality (Nephotettix cincticeps [9]): 40%; mortality (Nephotettix cincticeps [10]): 100%; mortality (Nephotettix cincticeps [11]): 83%; mortality (Nephotettix cincticeps [12]): 100%; mortality (Nephotettix cincticeps [13]): 100%; mortality (Nephotettix cincticeps [14]): 100%
31 | CCCCN1CCN(Cc2ccc(Cl)nc2)/C1=N/[N+](=O)[O-] | 1.6 ppm | –
32 | O=[N+]([O-])/C=C1\NCCN1CC1CCCO1 (centres undefined) | 500 ppm | –
33 | O=[N+]([O-])/C=C1\NCCN1Cc1ccc[nH]1 | 200 ppm | –
34 | O=[N+]([O-])/C=C1\NCCN1c1ccccc1 | 1000 ppm | –
35 | O=[N+]([O-])/C=C1\NCCN1Cc1ccncn1 | 40 ppm | –
36 | O=[N+]([O-])/C=C1\NCCCCN1Cc1ccccc1 | 1000 ppm | –
37 | O=[N+]([O-])/C=C1\NCCN1Cc1ccc(Cl)cc1 | 40 ppm | LC90 (Spodoptera litura): 500 ppm
38 | CCCCCCN1CCN(Cc2ccc(Cl)nc2)/C1=N/[N+](=O)[O-] | 40 ppm | –
39 | O=[N+]([O-])/C=C1\NCCN1Cc1cccs1 | 200 ppm | –
40 | CC(C)N1CCN(Cc2ccc(Cl)nc2)/C1=N/[N+](=O)[O-] | 40 ppm | –
41 | O=[N+]([O-])/C=C1\NCCN1Cc1cncc(Cl)c1 | 40 ppm | –
42 | O=[N+]([O-])/C=C1\NCCN1Cc1ccco1 | 200 ppm | –
43 | N#C/N=C1\NCCN1Cc1ccc(Cl)nc1 | 0.32 ppm | half-life [2]: > 24 h
44 | O=[N+]([O-])C=C1NCCCS1 | 40 ppm | LC90 (Spodoptera litura): <40 ppm; half-life [2]: 0.5 h
45 | O=[N+]([O-])/C=C1\NCCN1CCc1ccccc1 | inactive | –
46 | O=[N+]([O-])/C=C1\NCCN1Cc1cncnc1 | 8 ppm | –

Row | Compound | LC90 (Nephotettix cincticeps [1]) | further results
47 | C=CCN1CCN(Cc2ccc(Cl)nc2)/C1=N/[N+](=O)[O-] | 0.32 ppm | –
48 | O=[N+]([O-])C=C1NCCN1 [2-(NITROMETHYLENE)IMIDAZOLIDINE] | 1000 ppm | –
49 | O=[N+]([O-])/N=C1/N(CCCCCCN2CCN(Cc3ccc(Cl)nc3)/C2=N/[N+](=O)[O-])CCN1Cc1ccc(Cl)nc1 [Hexamethylene 1,6-bis-imadacloprid] | – | mortality (Myzus persicae [3]): 50%; mortality (Myzus persicae [4]): 55%; mortality (Myzus persicae [5]): 83%; mortality (Nephotettix cincticeps [6]): 100%; mortality (Nephotettix cincticeps [7]): 100%; mortality (Nephotettix cincticeps [8]): 56%; mortality (Nephotettix cincticeps [9]): 78%; mortality (Nephotettix cincticeps [10]): 89%; mortality (Nephotettix cincticeps [11]): 59%; mortality (Nephotettix cincticeps [12]): 94%; mortality (Nephotettix cincticeps [13]): 94%; mortality (Nephotettix cincticeps [14]): 60%
50 | O=[N+]([O-])/C=C1\NCCN1Cc1cccc(Cl)c1 | 200 ppm | –
51 | O=[N+]([O-])/C=C1\NCCN1Cc1ccc(C(F)(F)F)nc1 | 8 ppm | –
52 | O=[N+]([O-])/N=C1\NCCN1Cc1ccc(Cl)nc1 [IMIDACLOPRID] | <0.32 ppm | mortality (Nephotettix cincticeps [6]): 100%; mortality (Nephotettix cincticeps [7]): 100%; half-life [2]: 3 h; mortality (Nephotettix cincticeps [8]): 47%; mortality (Nephotettix cincticeps [9]): 80%; mortality (Nephotettix cincticeps [10]): 100%; mortality (Nephotettix cincticeps [11]): 89%; mortality (Nephotettix cincticeps [12]): 100%; mortality (Nephotettix cincticeps [13]): 100%; mortality (Nephotettix cincticeps [14]): 95%
53 | Cc1ccc(CN2CCN/C2=C\[N+](=O)[O-])cc1 | 200 ppm | –
54 | O=[N+]([O-])/C=C1\NCCCN1Cc1ccc(Cl)nc1 | – | half-life [2]: 2 h
55 | O=[N+]([O-])/C=C1\NCCN1Cc1ccccc1 | 200 ppm | –
56 | O=[N+]([O-])/C=C1\NCCN1Cc1ccsc1 | 200 ppm | –
57 | Cc1ccc(CN2CCN/C2=C\[N+](=O)[O-])cn1 | 1.6 ppm | –
58 | O=[N+]([O-])/C=C1\NCCN1Cc1cnco1 | 40 ppm | –
59 | O=[N+]([O-])N=C1N(Cc2ccc(Cl)nc2)CCN1Cc1ccc(Cl)nc1 | 1.6 ppm | –
60 | CN/C(=C\[N+](=O)[O-])NCc1ccccc1 | inactive | –
61 | O=[N+]([O-])/C=C1\NCCN1Cc1ccccn1 | 200 ppm | –
62 | O=[N+]([O-])/C=C1\NCCN1Cc1ccc(Cl)nc1 | 0.32 ppm | half-life [2]: 1 h
63 | O=[N+]([O-])/C=C1\NCCN1Cc1cccnc1Cl | 200 ppm | –
64 | O=[N+]([O-])/C=C1\NCCN1Cc1ccc([N+](=O)[O-])cc1 | 200 ppm | –
65 | N#Cc1cccc(CN2CCN/C2=C\[N+](=O)[O-])c1 | 40 ppm | –
66 | N=C1NCCN1Cc1ccc(Cl)nc1 [DESNITROIMIDACLOPRID] | 1000 ppm | –
67 | O=[N+]([O-])/C=C1\NCCN1Cc1cnc2ccccc2c1 | inactive | –
